# Test results from patent US10233201B2, “Class of HDAC inhibitors expands the renal progenitor cells population and improves the rate of recovery from acute kidney injury” (University of Pittsburgh—Of the Commonwealth System of …, priority 2012, dated 2019).
# Where two headings read alike, the source gives them in different places.
# Test system: renal progenitor cells (lhx1a expression)
# Test: In situ hybridization for lhx1a expression in 10-somite embryos (renal progenitor cell expansion)
# Assay type: in vivo
# Conditions: for lhx1a expansion class, 800 nM: 800 nM from 2 hpf; for lhx1a expansion class, 200 nM: 200 nM from 2 hpf; for lhx1a expansion class, 400 nM: 400 nM from 2 hpf
# Experimental: PTBA was synthesized as described below. Hydroxyurea and aphidicolin were obtained from Sigma-Aldrich.
# In situ hybridization and immunocytochemistry: In situ hybridization was performed as previously described with some modifications. 142 Hybridization temperature was 65° C. Embryos were blocked in 2% blocking reagent (Roche) with 5% sheep serum in MAB (100 mM maleic acid and 150 mM NaCl [pH 7.5]). Whole-mount immunocytochemistry with 1:25 mouse anti-α6F antibody (Developmental Studies Hybridoma Bank) and 1:100 Cy3 secondary antibody (Jackson ImmunoResearch) was performed as described previously. 108 Embryos were embedded in JB-4 for sectioning per the manufacturer's instructions (Polysciences), sectioned at 5 μm, and mounted with Cytoseal 60 (Richard-Allan Scientific).
# The remaining PTBA analogs were synthesized.
# In situ hybridization for lhx1a was performed as described above. […] Compounds were classified as effective, partially-effective or ineffective based on comparison to the effects of PTBA at a given concentration.
# Testing of the compounds is on-going, but for those tested, Table 3 provides first pass EC50s based upon colormetric in situ hybridizations for the Lhx1a mRNA expression levels. After the procedure is run, in situ hybridization is done for the lhx1 mRNA expression and the number of embryos that show an expanded kidney field is manually counted to establish the percent of embryos showing expansion. Then the EC50 is determined by plotting the percent expansion in Excel, graphing the results and using the trendline function to determine the 50 percent point. […] For UPHD-00186, the 4 values for EC50 are shown in Table 3 for the corresponding expression in zebrafish embryos employed an artificial intelligence-based image analysis method termed cognition network technology (CNT) for n=4.
# [1] = lhx1a in situ hybridization, includes repeats* and recounts
# [2] = Danio rerio, 800 nM, read-out: embryos with expanded lhx1a expression (% expansion)
# [3] = 3 μM from 2 hpf, 10-somite embryos
compound,measurement,setting,value
"Nc1ccccc1NC(=O)CCCSCCc1ccccc1 [UPHD-00190, N-(2-aminophenyl)-4-[(2-phenylethyl)sulfanyl]butanamide]",expansion,0.055 μM,72%
same,"Expansion of Cells, 200 nM",[1],50%
same,"Expansion of Cells, 400 nM",[1],0%
same,"Expansion of Cells, 800 nM",[1],0%
same,"Expansion of Cells, 1.5 μM",[1],0%
O=C(CCCSc1ccccc1)NO [N-hydroxy-4-(phenylthio)butanamide],"lhx1a expansion class, 800 nM",,+/−
Cc1ccc(SCCCC(=O)NO)cc1 [N-hydroxy-4-[(4-methylphenyl)thio]butanamide],"lhx1a expansion class, 200 nM",,−
same,"lhx1a expansion class, 400 nM",,−
same,"lhx1a expansion class, 800 nM",,+
same,responders at 0.8 µM,[2],61%
"Nc1ccccc1NC(=O)CCCCSCc1ccccc1 [UPHD-00188, N-(2-aminophenyl)-5-(benzysulfanyl) pentanamide]","Expansion of Cells, 800 nM",[1],0%
same,"Expansion of Cells, 1.5 μM",[1],0%
"Cn1cc(C(=O)Cc2ccccc2)cc1/C=C/C(=O)NO [APHA compound 8, reference compound]","lhx1a expansion class, 3 μM",[3],−
"2-amino-PTBA [Compound 2-amino-PTBA, reference compound]",embryos with expanded lhx1a expression (% expansion),[3],no expansion
"O=C(O)c1cccc(Sc2ccccc2)c1 [3-(phenylthio)benzoic acid, reference compound]",embryos with expanded lhx1a expression (% expansion),[3],no expansion
COC(=O)CCCSc1ccc(F)cc1 [methyl 4-[(4-fluorophenyl)thio]butanoate],"lhx1a expansion class, 200 nM",,+/−
same,"lhx1a expansion class, 400 nM",,+/−
same,"lhx1a expansion class, 800 nM",,+
same,lethality before the 10-somite stage,3 μM,killed all treated embryos
same,responders at 0.2 µM,"Danio rerio, 200 nM, read-out: embryos with expanded lhx1a expression (% expansion)",22%
same,responders at 0.4 µM,"Danio rerio, 400 nM, read-out: embryos with expanded lhx1a expression (% expansion)",26%
same,responders at 0.8 µM,[2],64%
COC(=O)CCCSc1ccc(C)cc1 [methyl 4-[(4-methylphenyl)thio]butanoate],"lhx1a expansion class, 200 nM",,−
same,"lhx1a expansion class, 400 nM",,−
same,"lhx1a expansion class, 800 nM",,+
same,responders at 0.8 µM,[2],49%
"O=C(O)CCCCc1ccccc1 [5-phenylpentanoic acid, reference compound]",embryos with expanded lhx1a expression (% expansion),[3],no expansion
"O=C(CCCCCSc1ccccc1)Nc1ccccc1O [UPHD-00187, N-(2-hydroxyphenyl)-6-(phenylsulfanyl) hexanamide]","Expansion of Cells, 400 nM",[1],58%
same,"Expansion of Cells, 800 nM",[1],52%
same,"Expansion of Cells, 1.5 μM",[1],52%
O=C(CCCSc1ccc(Cl)cc1)NO [4-[(4-chlorophenyl)thio]-N-hydroxybutanamide],"lhx1a expansion class, 800 nM",,+/−
CCCOC(=O)CCCSc1ccccc1 [propyl 4-(phenylthio)butanoate],"lhx1a expansion class, 800 nM",,+/−
"O=C(O)CCCSc1ccc2ccccc2c1 [4-(naphthalen-2-ylthio)butanoic acid, reference compound]",embryos with expanded lhx1a expression (% expansion),"3 μM from 2 hpf, 10-somite embryos, listed as 4-(napthalen-2-ylthio)butanoic acid",no expansion
CCC(C)OC(=O)CCCSc1ccccc1 (stereo not drawn) [butan-2-yl 4-(phenylthio)butanoate],"lhx1a expansion class, 800 nM",,+/−
"CCC(=O)CCCCC[C@@H]1NC(=O)[C@H]2CCCCN2C(=O)[C@H]([C@@H](C)CC)NC(=O)[C@H](Cc2cn(OC)c3ccccc23)NC1=O [apicidin, reference compound]","lhx1a expansion class, 200 nM",,−
same,"lhx1a expansion class, 400 nM",,+/−
same,"lhx1a expansion class, 800 nM",,XX^1
same,embryos surviving treatment,"800 nM, n=36",31%
same,treated embryos killed,"800 nM, n=36",69%
same,lethality before the 10-somite stage,1.5 μM,lethal
same,lethality before the 10-somite stage,3 μM,killed all treated embryos
same,responders at 0.4 µM,"Danio rerio, read-out: embryos with expanded lhx1a expression (% expansion), 400 nM",22%
